This note sets out measurements from ChEMBL document CHEMBL3734669, “Δ(5)-Cholenoyl-amino acids as selective and orally available antagonists of the Eph-ephrin system” (Eur J Med Chem, 2015).

Structures are written as SMILES.

The target in data set [1] is T1, Nuclear receptor subfamily 1 group I member 2 (Homo sapiens, UniProt O75469).
T1 sequence (O75469 whole entry): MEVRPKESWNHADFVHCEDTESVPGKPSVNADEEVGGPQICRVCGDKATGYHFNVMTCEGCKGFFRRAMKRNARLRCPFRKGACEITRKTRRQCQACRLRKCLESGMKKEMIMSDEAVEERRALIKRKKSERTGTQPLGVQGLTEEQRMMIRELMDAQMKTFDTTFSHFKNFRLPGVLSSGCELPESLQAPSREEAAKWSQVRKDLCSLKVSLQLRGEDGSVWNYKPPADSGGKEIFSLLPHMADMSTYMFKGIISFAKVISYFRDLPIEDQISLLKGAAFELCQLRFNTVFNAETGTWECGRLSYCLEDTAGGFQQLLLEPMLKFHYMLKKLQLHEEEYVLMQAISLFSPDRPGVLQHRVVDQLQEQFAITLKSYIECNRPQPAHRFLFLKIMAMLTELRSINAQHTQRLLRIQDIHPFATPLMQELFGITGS
The experiment in a line: Activation of human recombinant PXR up to 10 uM by alphascreen method.

The next data set addresses T2, Ephrin type-B receptor 1 (Homo sapiens, UniProt P54762).
T2 sequence (P54762 whole entry): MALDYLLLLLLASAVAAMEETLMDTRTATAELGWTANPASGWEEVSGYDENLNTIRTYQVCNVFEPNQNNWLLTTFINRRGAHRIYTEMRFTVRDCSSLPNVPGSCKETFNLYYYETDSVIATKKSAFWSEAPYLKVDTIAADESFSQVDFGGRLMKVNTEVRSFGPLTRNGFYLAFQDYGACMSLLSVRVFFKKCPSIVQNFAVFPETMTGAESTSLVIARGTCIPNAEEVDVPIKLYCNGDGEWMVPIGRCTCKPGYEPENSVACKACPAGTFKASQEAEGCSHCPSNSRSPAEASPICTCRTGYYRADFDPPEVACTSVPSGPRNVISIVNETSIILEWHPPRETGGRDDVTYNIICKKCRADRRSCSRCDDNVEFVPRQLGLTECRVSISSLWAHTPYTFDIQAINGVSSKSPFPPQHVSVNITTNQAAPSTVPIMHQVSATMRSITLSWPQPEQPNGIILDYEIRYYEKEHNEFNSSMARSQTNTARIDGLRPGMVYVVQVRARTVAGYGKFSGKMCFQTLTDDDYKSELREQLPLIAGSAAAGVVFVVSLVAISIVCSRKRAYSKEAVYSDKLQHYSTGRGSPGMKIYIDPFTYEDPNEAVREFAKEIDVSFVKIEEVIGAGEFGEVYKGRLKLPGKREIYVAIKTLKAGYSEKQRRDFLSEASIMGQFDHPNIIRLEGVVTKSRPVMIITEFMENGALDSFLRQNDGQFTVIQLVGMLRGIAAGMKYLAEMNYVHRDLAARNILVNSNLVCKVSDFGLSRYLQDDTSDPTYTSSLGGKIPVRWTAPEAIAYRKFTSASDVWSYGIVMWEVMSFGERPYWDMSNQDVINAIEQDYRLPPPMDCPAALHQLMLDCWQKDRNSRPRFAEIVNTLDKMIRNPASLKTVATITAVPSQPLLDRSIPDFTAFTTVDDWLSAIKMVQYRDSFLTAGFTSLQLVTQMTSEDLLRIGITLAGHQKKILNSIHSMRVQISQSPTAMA
The experiment in a line: (§1) Displacement of biotinylated ephrin-B1-Fc from EphB1 (unknown origin) preincubated for 1 hr followed by biotinylated-ephrin-B1-Fc addition measured after 4 hrs by ELISA. (In general: ELISA stands for enzyme-linked immunosorbent assay.)

Data set [2] has as its target T3, Ephrin type-B receptor 1 (Homo sapiens) (UniProt P54762).
T3 sequence (whole entry): T2 sequence (P54762 whole entry)
The data set is described as §1.

Another data set concerns the target Ephrin type-A receptor 7 (Homo sapiens, UniProt Q15375). The experiment in a line: Displacement of biotinylated ephrin-A1-Fc from EphA7 (unknown origin) preincubated for 1 hr followed by biotinylated-ephrin-A1-Fc addition measured after 4 hrs by ELISA.
A further data set addresses T4, Ephrin type-B receptor 6 (Homo sapiens, UniProt O15197).
T4 sequence (O15197 whole entry): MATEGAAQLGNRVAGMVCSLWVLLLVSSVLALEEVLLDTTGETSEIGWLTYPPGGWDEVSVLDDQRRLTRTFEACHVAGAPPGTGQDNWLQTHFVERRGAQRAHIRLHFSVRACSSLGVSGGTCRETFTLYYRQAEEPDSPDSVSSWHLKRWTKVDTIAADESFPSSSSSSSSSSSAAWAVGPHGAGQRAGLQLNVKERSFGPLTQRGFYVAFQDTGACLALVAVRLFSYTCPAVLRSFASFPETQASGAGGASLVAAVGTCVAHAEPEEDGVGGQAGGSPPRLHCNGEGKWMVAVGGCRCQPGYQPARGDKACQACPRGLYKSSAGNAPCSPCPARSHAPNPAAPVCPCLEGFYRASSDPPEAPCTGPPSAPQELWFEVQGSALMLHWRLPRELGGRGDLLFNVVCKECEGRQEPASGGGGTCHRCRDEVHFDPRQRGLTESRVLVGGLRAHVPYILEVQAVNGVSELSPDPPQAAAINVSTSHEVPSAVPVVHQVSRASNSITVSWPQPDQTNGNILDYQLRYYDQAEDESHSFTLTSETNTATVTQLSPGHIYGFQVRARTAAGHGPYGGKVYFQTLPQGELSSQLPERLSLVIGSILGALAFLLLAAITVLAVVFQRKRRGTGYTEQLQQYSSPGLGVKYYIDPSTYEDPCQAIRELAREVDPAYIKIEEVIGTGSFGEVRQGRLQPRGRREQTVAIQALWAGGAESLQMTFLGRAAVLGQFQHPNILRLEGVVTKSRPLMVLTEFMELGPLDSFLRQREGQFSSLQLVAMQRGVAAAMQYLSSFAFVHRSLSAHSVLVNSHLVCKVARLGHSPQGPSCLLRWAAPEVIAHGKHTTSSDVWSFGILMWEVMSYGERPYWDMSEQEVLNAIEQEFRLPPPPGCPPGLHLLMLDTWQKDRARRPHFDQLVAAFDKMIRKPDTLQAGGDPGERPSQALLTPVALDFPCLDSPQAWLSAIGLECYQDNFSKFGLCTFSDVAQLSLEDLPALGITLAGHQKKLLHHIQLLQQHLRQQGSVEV
The experiment in a line: (§2) Displacement of biotinylated ephrin-B1-Fc from EphB6 (unknown origin) preincubated for 1 hr followed by biotinylated-ephrin-B1-Fc addition measured after 4 hrs by ELISA.

Data set [3] deals with T5, Ephrin type-B receptor 6 (Homo sapiens) (UniProt O15197).
T5 sequence (whole entry): T4 sequence (O15197 whole entry)
Described as §2.

A short description of data set [4]: Metabolic stability in mouse plasma assessed as compound remaining at 1 uM after 24 hrs by HPLC-ESI-MS/MS analysis. It is filed as ADME, cell-free. The settings on record: read-out: Stability.
The nature of data set [5]: AUC (0 to t) in mouse at 30 mg/kg, po administered as single dose by HPLC-MS analysis. It is filed as ADME, organism-based. As to conditions: in vivo; call rule not given here.
The target of another data set is Ephrin type-A receptor 4 (Homo sapiens, UniProt P54764). The experiment in a line: Displacement of biotinylated ephrin-A1-Fc from EphA4 (unknown origin) preincubated for 1 hr followed by biotinylated-ephrin-A1-Fc addition measured after 4 hrs by ELISA.
Data set [6] is described as follows: Cytotoxicity against human PC3 cells at 10 to 30 uM after 2 hrs by LDH release assay. The class given is cell-based. As to conditions: pc-3, 2 h. (In general: Release of lactate dehydrogenase indicates damage to the cell membrane.)

Ephrin type-A receptor 4, sequence (P54764 whole entry): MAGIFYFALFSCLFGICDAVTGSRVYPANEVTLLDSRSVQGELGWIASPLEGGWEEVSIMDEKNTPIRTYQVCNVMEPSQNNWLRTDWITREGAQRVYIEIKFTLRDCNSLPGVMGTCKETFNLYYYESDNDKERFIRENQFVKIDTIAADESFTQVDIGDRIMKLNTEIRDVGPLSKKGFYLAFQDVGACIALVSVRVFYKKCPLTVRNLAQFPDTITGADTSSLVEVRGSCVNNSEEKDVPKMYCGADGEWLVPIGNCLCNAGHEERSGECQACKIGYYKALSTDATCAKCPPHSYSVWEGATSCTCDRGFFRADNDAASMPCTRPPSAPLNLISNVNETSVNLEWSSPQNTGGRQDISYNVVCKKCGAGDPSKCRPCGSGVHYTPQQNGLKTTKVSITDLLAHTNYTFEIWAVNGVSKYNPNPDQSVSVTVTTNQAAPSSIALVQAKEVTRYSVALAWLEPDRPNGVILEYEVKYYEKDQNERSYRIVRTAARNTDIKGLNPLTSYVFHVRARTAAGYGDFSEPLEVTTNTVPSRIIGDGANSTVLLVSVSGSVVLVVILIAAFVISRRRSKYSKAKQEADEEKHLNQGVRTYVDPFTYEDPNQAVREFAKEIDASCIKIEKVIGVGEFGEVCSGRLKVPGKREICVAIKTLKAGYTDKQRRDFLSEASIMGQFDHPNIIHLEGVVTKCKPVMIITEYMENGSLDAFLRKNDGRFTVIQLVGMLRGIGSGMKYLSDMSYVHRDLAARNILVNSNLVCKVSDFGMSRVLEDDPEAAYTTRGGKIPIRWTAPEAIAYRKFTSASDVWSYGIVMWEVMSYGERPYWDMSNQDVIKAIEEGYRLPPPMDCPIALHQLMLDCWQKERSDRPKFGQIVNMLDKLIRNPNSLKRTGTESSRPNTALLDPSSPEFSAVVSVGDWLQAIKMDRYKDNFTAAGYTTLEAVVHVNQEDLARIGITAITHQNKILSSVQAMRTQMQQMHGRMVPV

Regarding `C[C@H](CCC(=O)N[C@@H](Cc1c[nH]c2ccccc12)C(=O)O)[C@H]1CC[C@H]2[C@@H]3CC=C4C[C@@H](O)CC[C@]4(C)[C@H]3CC[C@]12C`, the Activity entry in [1] is recorded as “Not Active”; in data set [6], “Non-toxic”. The half-inhibitory concentration (IC50) on Ephrin type-B receptor 1 was 2.5 µM; on Ephrin type-A receptor 7 it was 2.5 µM; on Ephrin type-B receptor 6 it was 3.3 µM; on Ephrin type-A receptor 4, 3.8 µM. Besides, the inhibition result (in data set [2]; on Ephrin type-A receptor 7; in data set [3]; at Ephrin type-A receptor 4) was “Dose-dependent effect” in each case. For the same molecule, the remaining at 24 h, 1 µM in data set [4] stood at 95.8%. The exposure AUC(0-t) in data set [5] was 573 ng·h/mL.

One may read the IC50 as the concentration at which inhibition is half-maximal. What is called AUC(0-t) is the area under the concentration-time curve up to a stated or last time point. High values mean high exposure, low ones low exposure.
